Measurements as given in a melting point compilation (Tetko et al.; mined from patent text by program, amines drawn as free bases though some values may be those of a salt).
Starred links: 1 amine or outer side, 2 acyl side, 3 side chain; linkers in the order of their positions; H or OH if unused. Residues, ends and D or L forms follow the SMILES beside them. *: point of attachment. Glutaryl = O=C(CCCC(=O)[*:2])[*:1]; NHPr = CCCN*

Compound `N=C(NCc1cnc(Cl)s1)N[N+](=O)[O-]` has a melting point of 160 to 162 °C. `O=C(O)CCC(=O)c1ccc(NC(=O)C2CC2)cc1` gave a melting point of 229 to 230 °C. Work on `Oc1ccc(C(c2ccc(O)cc2)(c2ccc(I)cc2)C(F)(F)F)cc1` yielded a melting point of 187 to 189 °C. `COC(=O)c1cn(C(c2ccccc2)(c2ccccc2)c2ccccc2)cn1` gave a melting point of 147 to 152 °C. In the case of `Cc1ccc(Cn2cccc2C(=O)CC(=O)C(=O)O)cc1`, the melting point is reported as 179 to 181 °C. `CN1CC=C(C2c3ccccc3CCc3ccccc32)CC1` showed a melting point of 96 to 98 °C. With `CS(=O)(=O)Nc1cc(C(=O)NNC(=O)c2occ(-c3ccccc3)c2-c2ccccc2)ccc1O` the melting point was 230 to 231 °C. `NCCCCC(OP(=O)(O)CCCCc1ccccc1)C(=O)N1CCCC1C(=O)O` (stereo not given) showed a melting point of 160 to 175 °C. With `CN1CCC(c2ccc(OC(C)(C)CO)cc2)c2ccccc21` (stereo not given) the melting point was 92 to 94 °C. `Clc1ccc(-n2nc3c(c2Br)CSCC3)cc1` gave a melting point of 144 to 145 °C. `COc1c2c(c(OC)c(OC)c1OC)CCC(CCI)CC2` gave a melting point of 75 to 82 °C. `Cc1cc2c3c(ccc2cc1C(=O)c1ccc(Cl)cc1)OC(=O)C3(C)C` gave a melting point of 130 to 132 °C. `COc1cc(-c2cc(=O)c3c(OC)cc(OC)c(C4=CCN(C)CC4)c3o2)cc(OC)c1OC` gave a melting point of 211 to 212 °C. With `O=C1C(Cl)=C(NC2CCCC2)C(=O)c2ccccc21` the melting point was 81 to 83 °C. Work on `CSc1ccc(C(N)=O)c([N+](=O)[O-])c1` yielded a melting point of 176 to 178 °C. For `Nc1c(Cl)cc(C(O)CNCCCCCCOCCSCCc2ccccn2)cc1Cl` (stereo not given), the melting point was 59.5 to 62 °C. Compound `CC(C)(C)c1ccc(S(=O)(=O)CS(=O)(=O)c2ccc(C(C)(C)C)cc2)cc1` has a melting point of 150 to 152 °C. Compound `C=CC=CCC1=C(C)C(OC(=O)C2C(C=C(C)C)C2(C)C)CC1=O` (stereo not given) has a melting point of 57 °C. Compound `CCOc1nn(-c2ccc(C(F)(F)F)cn2)cc1CCCO` has a melting point of 85 to 86 °C. `O=c1ccc(-c2ccccc2O)n[nH]1` showed a melting point of 289 to 302 °C. With `O=C(O)CCc1cn(Cc2ccc(OCc3csc(-c4ccccc4)n3)cc2)nc1-c1cccs1` the melting point was 133 to 134 °C. `CCOCc1nc2c(c(C)c(C)n3nnnc23)n1CCNC(=O)Nc1ccccc1` gave a melting point of over 250 °C. For `CC(O)Cc1c(O)c2cccnc2n(-c2ccc(Cl)c(Cl)c2)c1=O` (stereo not given), the melting point was 232 to 234 °C. `CC(C)(C(=O)Nc1cc(Cl)cc(Cl)c1)N1COC(C#N)=C(c2ccccc2)C1=O` showed a melting point of 132 to 135 °C. Compound `CCCNC(=O)C1CCCN1C(=O)C(C)NC(=O)C(C)NC(=O)CCCC(=O)O` (stereo not drawn) (Glutaryl-Ala-Ala-Pro-NHPr; configuration not given here) has a melting point of 131 to 134 °C. With `COc1cc(N)ccc1S(=O)(=O)n1c(=O)n(C2CCCCC2)c2cc(Cl)ccc21` the melting point was 211 °C. `COc1ccc(C(=O)Nc2c(Cl)cncc2Cl)cc1O` showed a melting point of 227 to 228 °C. Work on `CCCCC(=O)c1ccc(O)c(Cl)c1Cl` yielded a melting point of 107 to 110 °C. For `CCn1ncc(C(=O)c2ccc(S(C)(=O)=O)c(N3CCOC(O)C3)c2Cl)c1O` (stereo not given), the melting point was 209 to 210 °C. Compound `O=C(c1ccc(Br)cc1)c1ccc([N+](=O)[O-])cc1` has a melting point of 123 to 124 °C. In the case of `CC(C)CCSc1cc(C(=O)O)cc(N=Nc2cc(C(=O)O)cc(SCCC(C)C)c2C(=O)c2ccccc2)c1C(=O)c1ccccc1`, the melting point is reported as 143 to 144 °C. With `CCc1[nH]n(-c2c(Cl)cc(Cl)cc2Cl)c2nc(Cc3cccc(OC)c3)nc(=O)c1-2` the melting point was 235 to 238 °C. `BrCc1cccc2cccc(CBr)c12` showed a melting point of 131 to 132 °C. Work on `CSc1cc2c(cc1C(F)(F)F)N(C(=O)Nc1ccc(C(=O)N(C)c3ccncc3)cc1)CC2` yielded a melting point of 230 to 232 °C. Work on `CCOC(=O)c1[nH]c2ccc(C)cc2c1C` yielded a melting point of 118 °C. Compound `CCN1C(=O)NCC1c1ccc(OC)c(OC2CC3CCC2C3)c1` (stereo not given) has a melting point of 149 to 153 °C. In the case of `COC(=O)c1ccc(NC(C)=O)c(C=NO)c1`, the melting point is reported as 200 to 203 °C. In the case of `CCCCc1oc2ccccc2c1C(=O)Nc1ccc(-c2ccc(OCC(=O)O)cc2)cc1`, the melting point is reported as 225 to 227 °C. For `OCc1ccc(OCCCCCCCCCCC2c3c(c4ccccc4c4ccccc34)-c3c2c2ccccc2c2ccccc32)cc1`, the melting point was 64 to 66 °C. For `ClCc1cccc2nnsc12`, the melting point was 78 to 80 °C. With `CC(C)(C)N1C(=O)c2ccc(C(=O)Cl)cc2S1(=O)=O` the melting point was 185 to 186 °C. `CCCCCC1CCc2cc(C(N)=O)ccc2C1` (stereo not given) showed a melting point of 166 to 168 °C. For `COP(=O)(OC)C(O)=Cc1ccc(Cl)cc1`, the melting point was 89 to 92 °C. With `N#Cc1ncccc1-c1ccc2c(c1)C1(CCCCC1)C(=O)N2` the melting point was 232 to 234 °C. With `CCOC(=O)C(CNC(=O)CSC(=O)c1ccccc1)NC(=O)CSC(=O)c1ccccc1` (stereo not given) the melting point was 130 to 131 °C. Work on `COCCOc1ccc(CCC(=O)NS(=O)(=O)CCC(C)C)c(Oc2ncc(C(F)(F)F)cc2Cl)c1` yielded a melting point of 130 to 132 °C. Work on `CCCCCCCCCCCCC1=CC(=O)c2c(Cl)cccc2C1=O` yielded a melting point of 57.5 to 58.5 °C. `CC(=O)OCC(C)C1=CCC2C3CC=C4CC(OC(C)=O)CCC4(C)C3CCC12C` (stereo not given) gave a melting point of 116 to 117 °C. `CC(=O)COc1ccc(Oc2ccc(F)cc2)cc1` showed a melting point of 56 to 57 °C. `CCc1c(-c2ccc(OCc3ccccc3)cc2)c2cc(CO)c3cccc1n32` showed a melting point of 148 to 150 °C. `Cc1cccc(NC(=O)NC2CN(C(=O)C3CCCCC3)c3ccccc3N(c3ccccc3)C2=O)c1` (stereo not given) showed a melting point of 165 to 168 °C. In the case of `Cn1c(COc2ccc(CC3SC(=O)N(C(c4ccccc4)(c4ccccc4)c4ccccc4)C3=O)cc2)nc2cccnc21` (stereo not given), the melting point is reported as 97 to 102 °C. `COc1cc(OC)c2ccsc2c1` gave a melting point of 78 to 80 °C. Compound `O=c1oc2ccc(-c3ccc(F)cc3F)cc2c(=O)n1-c1ccc(F)c(F)c1` has a melting point of 193 to 194 °C. For `Cc1cc2ncc(Nc3ccc(Cl)c(Cl)c3)nc2cc1C`, the melting point was 229 °C. Work on `COc1ccc(C(=O)Nc2ccccc2)cc1Nc1ccc(F)cc1` yielded a melting point of 178 to 180 °C. With `CC(C)(CF)C(O)C(Oc1ccc(Cl)cc1)n1cncn1` (stereo not given) the melting point was 103 to 112 °C. With `CC12CCC(O)CC1CCC1C2C(=NO)CC2(C)C1CCC21OCCO1` (stereo not given) the melting point was 158 to 159 °C. `CCOC(=O)c1c(C)nc(-c2ccccc2)nc1-c1ccncc1` showed a melting point of 95 to 96 °C. Work on `O=C(O)c1c(F)ccc([N+](=O)[O-])c1C(F)(F)F` yielded a melting point of 190 °C. `CN(C)C(=O)c1nc(-c2cccnc2)nc2c1[nH]c(=O)n2-c1ccccc1` gave a melting point of 250 to 252 °C. `O=C(O)Cc1ccc(C(=O)c2cccc(C(F)(F)F)c2)s1` gave a melting point of 120 °C. With `Cc1c(F)cc(C(C)(C)C)c(O)c1-c1nc2ccc(S(=O)(=O)C(F)(F)F)cc2c(=O)[nH]1` the melting point was 257 to 258 °C. Compound `Cc1ccc(C(C)(C)C)c(O)c1C(=O)Oc1ccccc1` has a melting point of 71 to 72 °C. Compound `Cc1cccc2ncc(C(=O)NCc3ccc(Cl)cc3)c(O)c12` has a melting point of 205 to 206 °C. For `Cc1cc(=O)[nH]nc1-c1ccc2c(c1)CC1(CCN(C3CCC3)CC1)O2`, the melting point was 243 to 245 °C. Compound `N#Cc1n[nH]c(N)c1SC(F)(F)F` has a melting point of 187 °C. In the case of `COc1ccc(/C=C/c2nc3ncccc3c(=O)o2)cc1OC`, the melting point is reported as 228 to 231 °C. Compound `CC1=C(C)[C@]23OC[C@](C)(CCC2=C(C)C1=O)O3` has a melting point of 99 to 100 °C. `O=c1oc2c(Cl)cccc2cc1S(=O)(=O)Nc1ccc(Br)cc1` showed a melting point of 202 to 204 °C. For `CCOC(=O)c1c2n(c3cc(N4CCNCC4)c(F)cc3c1=O)C(C)S2` (stereo not given), the melting point was 224 °C. In the case of `CCc1cc(NC(=O)N2CCN(c3ccsc3)CC2)c(OC)nc1C`, the melting point is reported as 108 to 110 °C. For `CCc1cn(C2CC(O)C(CNCc3ccccc3)O2)c(=O)[nH]c1=O` (stereo not given), the melting point was 121 to 124 °C. `CC(C)c1cccc(C(C)C)c1NC(=O)CN` gave a melting point of 88 to 95 °C. `COc1ccc(CN2CCc3cc(OCc4ccccc4)c(OC)cc3C2)cc1` showed a melting point of 96 to 97 °C. `CCOC(=O)c1ccc(N)cc1Br` gave a melting point of 93 °C. For `CN1C(=O)NC(c2ccccc2)c2cc3c(cc21)OCO3` (stereo not given), the melting point was 228 to 230 °C. For `CCSc1cc(C)nc(SCC)c1NC(=O)CCCSc1nc2ccccc2[nH]1`, the melting point was 160 to 161 °C. With `Cc1ccc(N(C)CCC(C)NCC(O)c2ccc(O)c(C(N)=O)c2)cc1` (stereo not given) the melting point was 123 to 126 °C. Compound `C=C(CC1(CC)C(=O)CCC1=O)C1=CCCc2cc(OC)ccc21` has a melting point of 100 to 125 °C. In the case of `CC(C)n1c(CC[C@@H](O)C[C@@H](O)CC(=O)OC(C)(C)C)c(-c2ccc(F)cc2)c(-c2ccccc2)c1C(N)=O`, the melting point is reported as 94 to 96 °C. `CC(C)Cc1c2c(nn1Cc1ccccc1)c(N)nc1ncccc12` showed a melting point of 232 to 235 °C. Compound `O=C(NC(Cc1ccc(OCc2ccc(Cl)cc2)cc1)C(=O)O)c1cc2ccc(-c3ccc(Cl)cc3)cc2o1` (stereo not given) has a melting point of 195 °C. With `O=C(c1ccc(Cc2c(Cl)cc(NN=Cc3ccccc3)cc2Cl)cc1)c1cnc(Cl)c(Cl)c1` the melting point was 173 to 175 °C. In the case of `CCOC(=O)CC(=O)c1cc(F)c(N=[N+]=[N-])nc1Nc1ccc(F)cc1F`, the melting point is reported as 130 to 131 °C. Compound `CCOC(=O)C(=O)CC(=O)c1cn(Cc2ccc([N+](=O)[O-])cc2)c2ccccc2c1=O` has a melting point of 175 to 176 °C. Work on `CC1(C)CCC(C)(C)c2c(O)ccc(O)c21` yielded a melting point of 114 °C. Compound `CSCC(C)(C)c1nnc(N)s1` has a melting point of 117 to 120 °C. Compound `CC(=O)C(C#N)c1ccc2c(c1)Cc1cccnc1O2` (stereo not given) has a melting point of 245 to 248 °C. Compound `C(=Cc1ccc(-c2ccccc2)cc1)c1ccccc1` has a melting point of 224 °C. For `COc1ccc(S(=O)(=O)N2CCN(C(=O)c3ccc(Nc4ccnc5cc(C(F)(F)F)ccc45)cc3)CC2)cc1`, the melting point was 221 to 223 °C. Compound `CNCC1CCN(c2c(F)cc3c(=O)c(C(=O)O)cn(C4CC4)c3c2OC)C1` (stereo not given) has a melting point of 226 to 230 °C. `NS(=O)(=O)CC(=O)c1ccccc1` showed a melting point of 97 to 99 °C. In the case of `C/C(=C/C(=O)N(C)O)c1ccn(-c2c(C)cccc2C)c1`, the melting point is reported as 158 to 160 °C. With `O=C(NCc1ccc2c(c1)OCO2)c1ccc(C(=O)NCc2ccc3c(c2)OCO3)s1` the melting point was 207 to 209 °C. `CCOC(=O)C(C(=O)CC)C(=O)OCC` gave a melting point of 89 to 93 °C. `CC1=C(C(O)c2ccc3c(c2)CCN(C(N)=O)C3)C(C)(C)CC1` (stereo not given) showed a melting point of 68.6 to 69.6 °C. In the case of `CN1C(=O)C(C(=O)Nc2ccc(F)cc2)Sc2ccccc21` (stereo not given), the melting point is reported as 158 to 160 °C. For `NOCc1nnc2n1-c1ccc(Cl)cc1C(c1ccccc1)=NC2`, the melting point was 183 to 186 °C. Compound `CC(=O)Nc1nc2c(Oc3cc(-c4ccc(C(F)(F)F)cc4N)ncn3)cccc2s1` has a melting point of 160 to 161 °C.
